Patent US12667546B2, “Methods for manipulating cell state transitions in cancer” (AGENCY FOR SCIENCE, TECHNOLOGY AND RESEARCH, priority 2018, dated 2026)
Counter-ions that a name gives are not always drawn. Like-named read-outs stand apart in the source and are kept apart here.

Key:
[1] = tested on: NAMEC8; assay: Expression of EMT and lineage markers (qRT-PCR, immunoblot, immunofluorescence) in NAMEC8; format: cell-based, human; details: transcript and protein
Method: Cells were rinsed twice in ice-cold PBS. Total RNA was extracted using Trizol (Invitrogen) and column-purified with RNeasy kits (Qiagen). cDNA synthesis was performed with 500 ng of total RNA at 37° C. for 2 h using the SuperScript III First-Strand Synthesis System (Thermo Fisher Scientific), and subsequently diluted 5-fold. mRNA levels were measured with gene-specific primers listed below using the ABI Prism 7900HT Sequence Detection System 2.2 (Applied Biosystems). Results were normalized to GAPDH and analyzed using SDS 2.2 software.
Cells were harvested and scraped from culture dishes in ice-cold PBS. They were then centrifuged at 12000 rpm for 5 min at 4° C. The pellets were then snap frozen in liquid nitrogen or lysed in ice-cold RIPA lysis buffer (Thermo Scientific) and left on ice for 30 min. Subsequently, the lysates were centrifuged at 12000 rpm for 10 min at 4° C. The supernatants were then aspirated and placed in fresh tubes. Protein concentrations were determined using Coomaisse Blue. 50-80 μg total protein was mixed with NuPAGE™ LDS sample buffer and heated at 70° C. for 10 min. Samples were loaded into NuPAGE™ 4-12% Bis-Tris gels (precast polyacrylamide gel; Invitrogen™). Gel electrophoresis was done at 200V for 1.5 h and then blotted onto nitrocellulose membranes (Trans-Blot Turbo™ transfer pack; Bio-Rad). The membranes were blocked with 5% skimmed milk in Tris-buffered saline (TBS; 1st BASE) with 0.1% Tween-20 (Santa Cruz), and then incubated with primary antibodies overnight at 4° C. Thereafter, the membranes were incubated with a horseradish peroxidase (HRP)-conjugated secondary antibody at room temperature for one hour. Finally, the immunoreactive proteins were visualized by using an enhanced chemiluminescent (ECL) reagent (Thermo Scientific, 34075) with the Chemidoc™ Imager (Bio-Rad, 17001401).
Cell cultures were fixed in 4% paraformaldehyde and permeabilized with 0.25% Triton X-100, followed by blocking with 1% bovine serum albumin in PBST. Cells were incubated in specific primary antibodies, followed by the appropriate secondary antibodies conjugated with Alexa Fluor-488 or -594 (Molecular Probes). Cell nuclei were then stained with DAPI and then viewed and imaged with an Axio Observer D1 epifluorescence microscope with a built-in AxioCamMR3 camera (Zeiss), using the optimal filters and 100-200× magnifications.

[2] = tested on: NAMEC8; assay: Mammosphere assay, NAMEC8; format: cell-based, human; details: NAMEC8, pre-treated cells
Method: For mammosphere culture, cells were seeded onto 96-well ultralow-adherence plates at 700 cells/well in Mammocult medium (Stem Cell Technologies) supplemented with 4 μg/ml heparin, 0.5 μg/ml hydrocortisone and 1% methylcellulose. Spheres (>100 μm) were counted at 7-10 days later.

[3] = tested on: SERPINE1prom-Luc reporter in NAMEC8 cells; assay: Dual-Glo luciferase assay of SERPINE1prom-Luc reporter (FF/Ren); format: cell-based, human; details: for dose-dependent change of SERPINE1 promoter activity: dose response (metabolic hits 10 nM to 2 μM; epigenetic hits six concentrations); for activity at 10 µM: Homo sapiens, 72 h, read-out: Avr FF/Renilla from DMSO
Source text: pGreenFire1-mCMV was cut using ClaI and SpeI and gel purified. Promoter sequences of genes Zeb1, Serpine1, CDH1, CD24, CD44, CD166 were amplified from human genomic DNA with pre-designed primers containing ClaI and SpeI restriction cut sites using AccuPrime Taq DNA Polymerase (Thermo Fisher Scientific). PCR products were then digested with restriction enzymes and gel-purified. Vector was ligated with PCR insert using Quick Ligase (Fermentas) and transformed into Stb12 competent cells. Colonies were picked and inoculated into TB media with ampicillin. Plasmids were then isolated using a plasmid miniprep kit (Qiagen) and sent for sequencing (1 stBASE Laboratories). After verifying the plasmid sequence, transfection into HEK293 cells was carried out to generate lentivirus. Transfection was carried out using FuGENE 6 (Promega). Viral supernatant was harvested at 24 h and 48 h. NAMEC8 cells were then infected twice with virus using polybrene ([…]) and checked for good transduction efficiency using Dual-Glo Luciferase System (Promega).
Stock plates of compound libraries were kindly prepared by GIS CHiP facility at 1 mM concentration in DMSO. NAMEC8-SERPINE1prom-Luc cells were seeded into 384 well plates at a density of 700 cells/well in a total volume of 50 μl, using an automated dispensing system (BioTek). 0.5 μl of compounds were then added to the wells the following day using a robotic pin transfer with a Bravo workstation (Agilent Technologies). Cells were then grown for 3 days and promoter-luciferase activity was measured using the Dual-Glo Luciferase System (Promega).
Assay was carried out according to manufacturer's instructions. To measure luciferase activity in 384 well plates, media was first removed from the plate. Firefly luciferase activity was determined by adding 30 μl Dual-Glo Luciferase substrate (Promega) to the wells and incubated for 10 min before measuring luminescence using a TECAN M1000 Pro plate reader. 15 μl Dual-Glo Stop & Glo substrate was then added to the wells, incubated for 10 min and measuring luminescence on the plate reader to determine Renilla luciferase activity. Promoter luciferase activity is then calculated by taking Firefly luciferase over Renilla luciferase.

[4] = tested on: NAMEC8; assay: Cell morphology of treated NAMEC8; format: cell-based, human; details: bexarotene, TTNPB, SGC-CBP30, UNC0642, A-485 1 μM, LLY-283, GSK591 20 nM, C-IN-1 500 nM
Method: Human mammary epithelial cell lines (HMLE) were generated as described and immortalized using retroviral vectors to express the catalytic subunit of the human telomerase enzyme, hTERT and the SV-40 Large T antigen. NAMEC8 was generated as described. Briefly, HMLE cells were grown to 50% confluency, followed by differential trypsinization for 1 minute with 0.05% trypsin. Detached cells were carefully collected and re-plated at approximately 200 cells per well of a 24-well plate. Upon expansion, wells were screened for populations that were morphologically mesenchymal and can be stably propagated. Clonal and non-clonal NAMEC cell lines were generated. NAMEC8 is a non-clonal line derived from at least 200 mesenchymal cells. HMLE cells and NAMECs were maintained in MEGM (Lonza).

[5] = tested on: NAMEC8-SERPINE1prom-Luc cells; assay: Renilla-luciferase (constitutive CMV promoter) readout for cell numbers; format: cell-based, human; details: for viability at 10 µM: Homo sapiens, 72 h, read-out: % Avr Renilla from DMSO
[6] = tested on: SUM159 PACR cells; assay: Cell viability IC50 in SUM159 PACR cells; details: SUM159 PACR vs SUM159 PT
[7] = primary screen, Renilla as readout for cell numbers, relative to DMSO
[8] = primary screen, NAMEC8-SERPINE1prom-Luc cells grown 3 days with compound, relative to DMSO

`O=C(NC[C@H](O)CN1CCc2ccccc2C1)c1ccnc(NC2CCC2)c1` [GSK591] was tested, and the “expression of EMT and basal/luminal markers” value [1] was “no apparent change was observed” and the mammosphere formation [2] was “significantly reduce the size and number of spheres formed”.

For `CN(C)c1ccc(C2Nc3ccc4ccccc4c3C3=C2C(=O)CC(C)(C)C3)cc1Br` (stereo not drawn) [Glutaminase C-IN-1], the “expression of EMT and basal/luminal markers” value [1] was “mesenchymal proteins Zeb1, fibronectin, Slug and Snail were decreased, epithelial E-Cadherin was increased”, the “dose-dependent change of SERPINE1 promoter activity” value [3] was “dose dependent decrease in SERPINE1 promoter activity” and the “dose-dependent change of SERPINE1 promoter activity” value ([3]; listed as C-IN-1) was “dose-response effect of decreasing SERPINE1 promoter activity”. The cell morphology [4] was “morphological change from a scattered distribution typically observed in mesenchymal cells to tight clusters of epithelial islands”.

In the case of `Nc1ncnc2c1ccn2[C@@H]1O[C@H]([C@H](O)c2ccccc2)[C@@H](O)[C@H]1O` [LLY-283], the “expression of EMT and basal/luminal markers” value [1] was “no apparent change was observed” and the mammosphere formation [2] was “significantly reduce the size and number of spheres formed”.

Work on `CCSC(=N)Nc1ccc(C(F)(F)F)cc1` [S-ethyl N-[4-(trifluoromethyl)phenyl] Isothiourea (hydrochloride)] yielded a viability at 10 µM [5, 7] of 76.8% and an activity at 10 µM [3, 8] of 59%.

`Cn1cc(C2=C(c3ccc(Cl)cc3Cl)C(=O)NC2=O)c2ccccc21` [SB 216763] was tested, and the “% Avr Renilla from DMSO” value [5, 7] was 107.55% and the “Avr FF/Renilla from DMSO” value [3, 8] was 0.56.

`NC(=O)c1ccc(-c2nc(-c3ccccn3)c(-c3ccc4c(c3)OCO4)[nH]2)cc1` [SB 431542] was tested, and the “% Avr Renilla from DMSO” value [5, 7] was 51.90% and the “Avr FF/Renilla from DMSO” value [3, 8] was 0.50.

`Cc1cccc(-c2[nH]c(C(C)(C)C)nc2-c2ccc3nccnc3c2)n1` [SB-525334] was tested, and the “% Avr Renilla from DMSO” value [5, 7] was 51.73% and the “Avr FF/Renilla from DMSO” value [3, 8] was 0.37.

With `O=[N+]([O-])c1ccc(CNc2nc(NCc3cccc(C(F)(F)F)c3)nc3nc[nH]c23)cc1` [TNP] the “% Avr Renilla from DMSO” value [5] was 80.47% and the “Avr FF/Renilla from DMSO” value [3] was 0.88.

`CCOC(=O)c1ccc(C#Cc2ccc3c(c2)C(C)(C)CCS3)nc1` [Tazarotene] showed a viability at 10 µM [5, 7] of 67% and an activity at 10 µM [3, 8] of 59%.

With `CCO.N#CC(=C(/N)Sc1ccccc1N)/C(C#N)=C(\N)Sc1ccccc1N` [U0126-EtOH] the “% Avr Renilla from DMSO” value [5, 7] was 76.21% and the “Avr FF/Renilla from DMSO” value [3, 8] was 0.62.

In the case of `N#CC(=C(/N)Sc1ccccc1N)/C(C#N)=C(\N)Sc1ccccc1N` [U0126], the viability at 10 µM [5] was 102% and the activity at 10 µM [3] was 45%.

In the case of `CCCCC/C=C\C/C=C\C/C=C\C/C=C\CCCC(=O)NCc1ccoc1` [UCM707], the “% Avr Renilla from DMSO” value [5, 7] was 88.05% and the “Avr FF/Renilla from DMSO” value ([3]; primary screen, […], relative to DMSO) was 0.57.

For `COc1cc2c(NC3CCN(C(C)C)CC3)nc(N3CCC(F)(F)CC3)nc2cc1OCCCN1CCCC1` [UNC0642], the “expression of EMT and basal/luminal markers” value [1] was “no apparent change was observed”.

In the case of `CC(=O)O[C@H]1C(=O)[C@@]2(C)[C@H]([C@H](OC(=O)c3ccccc3)[C@]3(O)C[C@H](OC(=O)[C@H](O)[C@@H](NC(=O)c4ccccc4)c4ccccc4)C(C)=C1C3(C)C)[C@]1(OC(C)=O)CO[C@@H]1C[C@@H]2O` [paclitaxel], the “increase in paclitaxel-resistance, PACR vs parental (PT) cells” value [6] was > 20 fold.

CAY10587 was tested, and the “% Avr Renilla from DMSO” value [5, 7] was 72.88% and the “Avr FF/Renilla from DMSO” value [3, 8] was 0.56.
